Results as given in patent EP0401096A1, “Agents and complexes of ion Mg++ facilitating absorption of magnesium in a human or animal organism, and pharmaceutical or dietetic compositions useful for the administration of magnesium in a human or animal organism” (LABORATOIRES LUCIEN, priority 1989, dated 1990).

Key:
[1] = Magnesium balance in rats after oral administration (first experiment, 3 lots of 20); type: in vivo, rat; settings: mean (M), oral 38,88 mg de Mg2+/kg
Description: L'essai porte sur 60 rats mâles S.P.F. de souche "CD", d'un poids moyen de 60 à 80 g à leur arrivée. Ils sont maintenus en animalerie conventionnelle dans des conditions identiques de température (21°C +/- 1°C), d'hygrométrie (40 à 70 %) et de luminosité (12h/24).
Dès leur arrivée, les animaux sont placés en cage à métabolisme et reçoivent un aliment contenant 570 mg de Mg2+/kg : concentration nécessaire et suffisante pour maintenir chez l'animal une magnésémie normale.
4 jours après leur arrivée, au temps "t-16h" de l'essai, soit 16 h avant l'administration des traitements (temps "t"), les animaux sont pesés, mis à jeun et le volume d'eau déminéralisée mis à leur disposition est exactement mesuré.
Au temps "t-1h" soit 1 h avant l'administration des traitements, l'eau de boisson est retirée. Elle est redistribuée 30 minutes après cette administration, le volume étant exactement mesuré.
Au temps "t+24h" les animaux sont sacrifiés par dislocation cervicale et le contenu de la vessie et des intestins est prélevé.
Les animaux sont répartis en 3 lots de 20 animaux chacun : • . Lot I : Témoins recevant 40 ml/kg d'eau déminéralisée; • . Lot II : Traités recevant 38,88 mg de Mg2+/kg sous forme de MgCl2, sous un volume de 40 ml/kg d'eau déminéralisée; • . Lot III : Traités recevant l'association "MgCl2 + acide malique" à la dose de 38,88 mg de Mg2+/kg sous forme de MgCl2 + 408 mg d'acide malique/kg, sous un volume de 40 ml/kg d'eau déminéralisée (pH ajusté à 5), ce qui correspond à une concentration en magnésium CMg = 0,04 mol.dm-3 et à une concentration de (DL)-malate CDLM = 0,076 mol.dm-3.
• a/ - Avant traitement : "t - 16 h" à "t" . Recueil des urines et mesure du volume. . Mesure de la consommation hydrique/15 h (les animaux étant privés d'eau de boisson 1 h avant l'administration des traitements). • b/ - Traitement : "t" . Pesée des animaux. . Administration des traitements, voie orale, par tubage oesophagien. • c/ - Après traitement : "t" à "t + 24 h" • c.1. Exploration urinaire : . […]

[2] = Magnesium balance in rats after oral administration (experiment coded 1.33, 4 lots of 18); type: in vivo, rat; settings: mean (M), experiment 1.33
Description: D'autres expérimentations basées sur des protocoles comparables ont confirmé les résultats ci-dessus. Elles ne feront pas toutefois l'objet d'une présentation en détails. Seuls les résultats de l'expérimentation suivante mettant en jeu l'acide malique et l'acide citrique seront présentés de façon globale dans les tableaux 10 et 11 ci-après.
La nouvelle expérimentation (codée 1.33) a été réalisée sur 4 lots de 18 animaux chacun, les lots I, II et III recevant les mêmes traitements que ceux administrés aux lots correspondants dans le cadre de l'expérimentation précédente et le lot IV recevant l'association "MgCl2 + acide citrique" à la dose de 38,88 mg de Mg2+/kg sous forme de MgCl2 + 1345 mg d'acide citrique/kg, sous un volume de 40 ml/kg d'eau déminéralisée (pH ajusté à 5), ce qui correspond à une concentration en magnésium CMg = 0,04 mol.dm-3 et à une concentration de citrate CTA = 0,16 mol.dm-3. Tableau 10

[3] = Potentiometric titration, protonation constants of the ligand ([…]); type: physicochemical; settings: proton-malonate, aqueous solution, 37°C
Description: La méthode potentiométrique associée aux techniques informatiques a été utilisée pour cette étude. Les constantes de protonation du ligand, utilisées par la suite comme références, ont été calculées au moyen d'un programme informatique ([…]) à partir de données expérimentales provenant de titrages réalisés en solution aqueuse à 37°C et sous atmosphère d'azote.
(§1) A partir des données expérimentales des titrages, le programme […] calcule les constantes par la méthode des moindres carrés. Parmi les différentes combinaisons de complexes possibles, seules sont retenues celles pour lesquelles les critères numériques (notamment la somme des carrés des résidus) sont convenables. Le meilleur ensemble est finalement choisi d'après le tracé des courbes de formation simulées au moyen d'un troisième programme informatique (PSEUDOPLOT) : c'est celui qui permet d'obtenir la meilleure coïncidence entre courbes expérimentale (figure 2) et simulée (figure 3).

[4] = Potentiometric titration, formation constants of magnesium-ligand complexes ([…], ZAPAPLOT, PSEUDOPLOT); type: physicochemical; settings: magnésium-malonate, 37°C
Description: La complexation dans chaque système magnésium-ligand a ensuite été étudiée à partir de plusieurs titrages en solution aqueuse du ligand en présence de magnésium, pour différents rapports de concentrations métal-ligand correspondant à l'éventail le plus large possible de conditions thérapeutiques. Ces dosages se traduisent graphiquement par le tracé des courbes de protonation s = f ( -log[H] ), où s est le nombre moyen de protons liés au ligand. Ce type de courbes permet de visualiser la complexation. Par exemple, sur la figure 1, relative au système magnésium-malonate, on a représenté la courbe de protonation de référence du ligand par un trait plein et matérialisé les points expérimentaux des titrages du ligand en présence de magnésium par les symboles +, x, , □, ◁ dans l'ordre des rapports de concentrations métal/ligand croissants. On remarque deux zones de pH différentes : - l'une, de pH 2 à 3, pour laquelle les points se superposent à la courbe de protonation de référence, ce qui dénote une absence totale de complexation, - l'autre, de pH 3 à 7, pour laquelle les points sont décalés vers la gauche par rapport à la protonation de référence, c'est-à-dire vers des pH plus acides. Il y a donc une libération d'ions H+ en solution due à la complexation des ions Mg2+ par le malonate.
Cette complexation est confirmée par le tracé de la courbe de formation expérimentale p = f ( -log [L] ) au moyen d'un autre programme (ZAPAPLOT) où p est le nombre moyen de ligands liés au métal (représenté par le degré de formation DF à la figure 2). L'allure de cette courbe donne une idée de la forme sous laquelle le ligand intervient dans les complexes formés et permet d'estimer la valeur de leurs constantes de formation.
as §1

[5] = Potentiometric titration, formation constants of calcium-ligand complexes; type: physicochemical; settings: calcium-malonate, complexe ML (charge 0); 37°C
Description: Trois cas possibles a priori ont été effectivement rencontrés : • i) si aucune complexation n'est constatée dans les conditions expérimentales précisées plus haut, c'est à dire si le degré de complexation reste nul sur tout le domaine de concentrations en ligand examiné, aucune espèce complexe indépendante ne peut exister dans le fluide gastro-intestinal. Ceci ne signifie pas que les ligands envisagés ne puissent pas coordonner le magnésium à des concentrations beaucoup plus élevées, mais cette possibilité se rapportant à des conditions extra-physiologiques ne présente pas d'intérêt dans le cadre de l'invention. • ii) si l'ensemble de complexes sélectionné d'après les critères ci-dessus n'est constitué que d'espèces ionisées, il est impossible à ces dernières de se dissoudre dans la membrane phospholipidique; les ligands correspondants ne peuvent donc être utilisés comme vecteurs pour l'absorption gastro-intestinale du magnésium. • iii) si l'ensemble retenu contient une ou plusieurs espèces neutres, les ligands correspondants peuvent être a priori des vecteurs efficaces pour l'absorption du magnésium par les membranes séparant le biofluide d'un biofluide voisin. Leur efficacité dépendra toutefois de la proportion de ces espèces neutres dans les conditions thérapeutiques. […]

[6] = coefficient d'utilisation digestive

Row | C. abs. ([1]; coefficient d'absorption) | C.u.d. [1, 6] | C.r. ([1]; coefficient de rétention) | C. abs. ([2]; coefficient d'absorption) | C.u.d. [2, 6] | C.r. ([2]; coefficient de rétention) | MgF/24 h ([2]; faecal magnesium, oral 38,88 mg de Mg2+/kg) | MgU/24 h ([2]; urinary magnesium, oral 38,88 mg de Mg2+/kg) | SMILES | log β ([3]; complexe LH2) | log β ([3]; complexe LH) | log β ([4]; complexe ML3) | log β ([4]; complexe ML (charge 0)) | log β ([4]; complexe MLH-1) | log β ([4]; complexe MLH) | log β [5]
1 | 38,948 | 73,617 | 50,083 | 30,19 | 66,89 | 43,78 | 2,003 mg/100 g de rat | 1,873 mg/100 g de rat | [Cl-].[Cl-].[Mg+2] [Lot II, MgCl2] |  |  |  |  |  |  | 
2 |  |  |  |  |  |  |  |  | O=C(O)CC(=O)O [MLO, malonate] | 7,815 | 5,235 | 5,266 | 2,064 | 6,326 | 5,524 | 1,511
